In US20260335332A1, “STABLE MONOHYDRATE FORM OF AVIBACTAM SODIUM SALT AND PREPARATION METHOD THEREFOR” (KYONGBO PHARM. CO., LTD., priority 2022, published 2026):
Where two headings read alike, the source gives them in different places.

Tests used:
[1] = described in WO2011/042560 A1; cited from earlier work
[2] = Accelerated stability test on moisture content changes (40° C., 75% relative humidity), Karl-Fischer; format: physicochemical; details: glass vial, 6 weeks, Karl-Fischer moisture meter
Method: The novel monohydrate form “a” of avibactam sodium salt prepared in Example 1 was packaged in a glass vial and stored at 40° C. and 75% relative humidity for 6 weeks and the change in moisture content thereof was measured by a Karl-Fischer moisture meter at weekly intervals for about 6 weeks.

[3] = Comparative accelerated stability test on purity/appearance changes (40° C., 75% relative humidity), HPLC; format: physicochemical; details: 6 weeks
Method: The novel monohydrate form “a” of avibactam sodium salt prepared in Example 1, the monohydrate form “A” and the anhydrous form “B” were each packaged in glass vials and stored at 40° C. and 75% relative humidity for 6 weeks and the purity changes thereof were measured by HPLC at weekly intervals.

[4] = described in WO2011/042560 A1; cited from earlier work; remark: listed apart in the source
DSC pattern measurement = format: physicochemical; details: 3 to 5 mg, 25 to 500° C. at 10 K/min
Method: The DSC pattern was measured while heating 3 to 5 mg of the novel monohydrate form “a” of avibactam sodium salt prepared in Example 1 from 25 to 500° C. at a rate of 10 K/min. As a result, the exothermic decomposition peak was confirmed at 227.3° C. […] It was confirmed therefrom that it had different physicochemical properties from the monohydrate form “A”, and the results are shown in FIG. 6.

TGA pattern measurement = format: physicochemical; details: 3 to 5 mg, 30 to 500° C. at 10 K/min; theoretical water content of the monohydrate 5.90%
Method: The TGA pattern was measured while heating 3 to 5 mg of the novel monohydrate form “a” of avibactam sodium salt prepared in Example 1 from 30 to 500° C. at a rate of 10 K/min. […] In addition, decomposition exotherm accompanied by weight loss at 200 to 220° C. was confirmed and the results are shown in FIG. 5.

maintenance of monohydrate form (change in moisture content) [2] | exothermic decomposition peak (DSC) (DSC pattern measurement) | weight loss at 100 to 140° C. (TGA) (TGA pattern measurement) | Compound | stability during long storage and at higher temperature [1] | pharmaceutical stability compared with anhydrous form “B” ([3]; accelerated stability, vs anhydrous form “B”) | stability (purity changes) compared with monohydrate form “A” ([3]; glass vials, HPLC at weekly intervals, vs monohydrate form “A”) | exothermic decomposition peak (DSC) [4]
– | – | – | NC(=O)[C@@H]1CC[C@@H]2CN1C(=O)N2OS(=O)(=O)O [form “E”, (1R,2S,5R)-7-oxo-6-sulfooxy-1,6-diazabicyclo[3.2.1]octane-2-carboxamide sodium] | tends to lose water and hydrolyze during long storage and at higher temperature | – | – | –
maintained the monohydrate form thereof | 227.3 °C | 5.57% | NC(=O)[C@@H]1CC[C@@H]2CN1C(=O)N2OS(=O)(=O)O [form “a”, (1R,2S,5R)-7-oxo-6-sulfooxy-1,6-diazabicyclo[3.2.1]octane-2-carboxamide sodium] | – | pharmaceutically more stable than the form “B” | a more stable form than the monohydrate form “A” | 238.9 °C
